In paper PMC12495443, “Developing inhibitors of the guanosine triphosphate hydrolysis accelerating activity of Regulator of G protein Signaling-14 [drawing 1]” (The Journal of Biological Chemistry, 2025):
Where two headings read alike, the source gives them in different places.

How the values were obtained:
[1] = target: T1, human RGS14 RGS-box (wild-type) (Homo sapiens, UniProt O43566); assay: Transcreener GDP RGScreen fluorescence polarization assay of RGS14 RGS-box GAP activity on Gαi1(DM); type: biochemical; settings: for Ratio (RGS14 pIC50 / RGS12 pIC50): values > 1.0 reflect RGS14 selectivity
T1 construct: human RGS14 RGS-box (aa 46–195 of UniProt O43566); host or cells: E. coli
T1 sequence (O43566 46-195): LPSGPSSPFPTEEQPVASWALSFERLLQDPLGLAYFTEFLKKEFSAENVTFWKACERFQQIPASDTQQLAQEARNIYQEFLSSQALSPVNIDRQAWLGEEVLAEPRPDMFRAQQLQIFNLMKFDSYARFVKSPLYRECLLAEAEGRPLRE
Description: (§1) We previously described work with BellBrook Labs creating the Transcreener GDP RGScreen fluorescence polarization assay of steady-state GTP hydrolysis, leveraging a double point-mutant in the Gα enzyme to make GTP hydrolysis, rather than GDP (product) release, the rate-limiting step for multiple rounds of GTP conversion ([57], [59]). […] Titrating inputs of the double point-mutant (“DM”) Gαi1 and RGS-box recombinant proteins (Fig. S2, B and C) established a robust, medium-throughput assay for evaluating potential RGS14 and RGS12 inhibitors, with “assay quality” Z′ scores ([60]) above 0.76 for each target (Fig. S2D).
(§2) Reagents and protocols for the fluorescence anisotropy-based Transcreener GDP RGScreen assay using a rate-altered, double point-mutant, recombinant Gαi1 protein have been extensively described previously ([43], [44]); reactions were always performed so that total GTP converted over the time course was consistently less than 10% of reaction maximum input. Specific methods for its application in assessing RGS14 and RGS12 GAP activity are summarized as follows. Open-reading frames (ORFs) encoding wild-type versions of the human RGS14 RGS-box (aa 46–195 of UniProt O43566) and human RGS12 RGS-box (aa 695–843 of UniProt O14924) were each sub-cloned in-frame with an N-terminal hexahistidine (His6) expression tag in the plasmid pET30a, expressed in E. coli cultures, and then purified by nickel-nitriloacetate (Ni-NTA) and size-exclusion (Superdex 200) column chromatographies by GenScript using previously described methods ([35]). These recombinant His6-tag fusion proteins were stored at −80 °C in storage buffer (150 mM NaCl, 50 mM Tris-HCl pH 8.0, 10% glycerol) before thawing and use. Cysteine-less versions were similarly produced by ORF site-directed mutagenesis: for RGS14, codons for cysteine residues 47 and 130 (numbered as in PDB id 2JNU) were replaced with serine codons; for RGS12, codons for cysteines 4, 51, 78, and 134 (numbered in relation to PDB id 2EBZ) were replaced with serine codons. Use of Transcreener GDP-detection reagents to assess compound inhibition of Naegleria fowleri Gα7 protein GTPase activity ([83]) has previously been described ([84]).

[2] = target: T2, human RGS12 RGS-box (wild-type) (Homo sapiens, UniProt O14924); assay: Transcreener GDP RGScreen fluorescence polarization assay of RGS12 RGS-box GAP activity on Gαi1(DM); type: biochemical; settings: for IC50 / RGS12 pIC50: wild-type RGS12 RGS-box GAP activity, Gαi1(DM); for IC50: read-out: RGS12 pIC50 (converted)
T2 construct: human RGS12 RGS-box (aa 695–843 of UniProt O14924); host or cells: E. coli
T2 sequence (O14924 695-843): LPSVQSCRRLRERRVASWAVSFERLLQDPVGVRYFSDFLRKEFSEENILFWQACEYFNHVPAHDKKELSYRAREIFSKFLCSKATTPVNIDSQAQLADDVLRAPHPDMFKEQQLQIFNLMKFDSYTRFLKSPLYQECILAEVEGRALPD
Description: as §1, §2

[3] = wild-type RGS14 RGS-box GAP activity, Gαi1(DM), Transcreener GDP RGScreen, read-out: RGS14 pIC50 (converted)
[4] = wild-type RGS14 RGS-box GAP activity, Gαi1(DM), Transcreener GDP RGScreen

SMILES	Ratio (RGS14 pIC50 / RGS12 pIC50) [1]	IC50 [1, 3] [µM]	IC50 [2] [µM]	further results
CCOc1ccccc1-c1nnc2n1N=C(c1ccc(NC(=O)C(C)C)cc1)[C@@H](C)S2 [Z90278674]	0.92	102	44.7	–
COc1cccc(C2=Nn3c(COc4ccc(Cl)cc4)nnc3SC2)c1 [Z55660496]	0.85	191	42.7	–
COC(=O)C1Sc2nnc(COc3ccc(OC)cc3)n2N=C1c1cccc(N2CCCC2=O)c1 (centres unmarked) [Z7976707565]	1.14	27.5	100	–
Cc1ccc(C2=Nn3c(COc4ccc(Cl)cc4)nnc3SC2CC(=O)O)cc1 (centres unmarked) [Z90276194]	1.00	–	–	RGS14 pIC50 [1, 4]: 4.21; RGS12 pIC50 [2]: 4.21
COc1ccc(Cc2nnc3n2N=C(c2ccccc2)C(C)S3)cc1OC (centres unmarked) [Z55660788]	0.90	–	–	RGS14 pIC50 [1, 4]: 4.03; RGS12 pIC50 [2]: 4.50
FC(F)Oc1ccc(C2=Nn3c(COc4ccccc4)nnc3SC2)cc1 [Z56840012]	0.90	36.3	11.5	–
O=C(O)CC1Sc2nnc(C3CCCO3)n2N=C1c1ccc(Cl)cc1 (centres unmarked) [Z90278051]	1.07	56.2	107	–
O=C(O)CC1Sc2nnc(C3CC3)n2N=C1c1ccc(F)cc1 (centres unmarked) [Z90274599]	0.92	91.2	41.7	–
COC(=O)C1Sc2nnc(COc3ccc(F)cc3)n2N=C1c1cc2ccccc2o1 (centres unmarked) [Z8201263931]	0.91	100	40.7	–
CC(C)(C)c1ccc(C2=Nn3c(nnc3-c3ccco3)SC2)cc1 [Z55660110]	–	56.2	53.7	–
O=C(O)CC1Sc2nnc(C3COc4ccccc4O3)n2N=C1c1cccs1 (centres unmarked) [Z90275816]	1.08	20.4	44.7	–
O=c1[nH]c(-c2ccc(C(F)(F)F)cc2)nn1-c1cc(Cl)ccc1O [BMS-192364, reference compound]	–	–	–	inhibition of RGS14 RGS-box GAP activity (in words) ([1]; Transcreener GDP RGScreen): inactive; inhibition of RGS12 RGS-box GAP activity (in words) [2]: inactive
c1ccc2c(c1)OC[C@@H](c1nnc3n1N=C(c1ccc4c(c1)OCCO4)CS3)O2 [Z55660304]	0.90	28.8	8.71	–
CC(C)c1nnc2n1N=C(c1cc3ccccc3o1)CS2 [Z55627782]	0.82	191	27.5	–
O=C(O)C[C@@H]1Sc2nnc(COc3ccc(Cl)cc3)n2N=C1c1ccccc1 [Z90276197, 2-{3-[(4-chlorophenoxy)methyl]-6-phenyl-5H-[1,2,4]triazolo[3,4-b][1,3,4]thiadiazin-7-yl}acetic acid]	0.94	–	42.7	IC50 ([1]; wild-type RGS14 RGS-box, Transcreener GDP RGScreen, read-out: IC50 against RGS14 RGS-box GAP activity): 81 µM
COc1ccc(OCc2nnc3n2N=C(c2ccc(C)cc2)[C@@H](C)S3)cc1 [Z55660052]	0.86	20.4	3.63	–
COc1cccc(OCc2nnc3n2N=C(c2ccccc2)[C@H](CC(=O)O)S3)c1 [Z90278437]	1.00	170	174	–
O=C(O)C[C@@H]1Sc2nnc(CCC3CCCCC3)n2N=C1c1ccccc1 [Z90277285]	0.96	38	24	–
Cc1ccc(C2=Nn3c(COc4ccc(Cl)cc4)nnc3SC2)c(C)c1 [Z55660524]	0.82	170	26.9	–
C1CC[C@H]2Sc3nnc([C@H]4CCCO4)n3N=C2C1 [Z90278035]	0.93	61.7	30.2	–

SMILES	Ratio (RGS14 pIC50 / RGS12 pIC50) [1]	IC50 [1, 3] [µM]	IC50 [2] [µM]	further results
O=C(O)CC1Sc2nnc(C3CC3)n2N=C1c1ccccc1 (centres unmarked) [Z90274597]	0.92	302	151	–
Cc1ccc(C2=Nn3c(nnc3C3CC3)SC2CC(=O)O)cc1 (centres unmarked) [Z90274594]	0.85	275	66.1	–
COc1ccc(Cc2nnc3n2N=C(c2ccc(C)c(C)c2)[C@@H](C)S3)cc1OC [Z55660805]	0.91	75.9	29.5	–
C[C@H]1Sc2nnc(Cc3ccc(Br)cc3)n2N=C1c1ccc(NS(C)(=O)=O)cc1 [Z90276813]	0.85	72.4	13.5	–
CSc1nnc2n1N=C(c1ccc(NC(=O)C(C)C)cc1)[C@H](C)S2 [Z90277842]	0.94	107	61.7	–
O=C(O)C[C@@H]1Sc2nnc(-c3ccco3)n2N=C1c1ccc(F)cc1 [Z90276391]	0.96	93.3	61.7	–
CC1Sc2nnc(Cc3ccc(Br)cc3)n2N=C1c1ccc(Cl)cc1 (centres unmarked) [Z55660592]	0.93	21.4	10	–
CC(Sc1n[nH]c2nc3ccccc3n12)C(=O)c1c(F)cc(F)cc1F (centres unmarked) [Z1098346193, 2-(2,4,5,7-tetraaza-tricyclo[6.4.0.0²,⁶]dodeca-1(12),3,5,8,10-pentaen-3-ylsulfanyl)-1-(2,4,6-trifluorophenyl)propan-1-one]	–	~200	63.1	–
CCn1c(SC(C)C(=O)c2ccc(OC)cc2)nc2cc(S(N)(=O)=O)ccc21 (centres unmarked) [Z51419018]	–	> 1000	–	–
CCOc1ccc2[nH]c(SCCC(=O)c3ccc(F)cc3)nc2c1 [Z19828508]	–	> 1000	–	–
CCn1c(SC(C)C(=O)c2ccc(F)cc2)nc2cc(S(N)(=O)=O)ccc21 (centres unmarked) [Z51419107]	–	> 1000	–	–
COc1ccc2nc(SC(C)C(=O)c3[nH]c(C)c(C(C)=O)c3C)[nH]c2c1 (centres unmarked) [Z98717471]	–	> 1000	–	–
CCn1c(SC(C)C(=O)c2ccc(NS(C)(=O)=O)cc2)nc2ccccc21 (centres unmarked) [Z50932618]	–	> 1000	–	–
COc1ccc2nc(SC(C)C(=O)c3ccco3)[nH]c2c1 (centres unmarked) [Z3277796272]	–	> 1000	–	–
CCOc1ccc2nc(SCC(=O)c3ccc(CC)cc3)[nH]c2c1 [Z55030990]	–	> 1000	–	–
CCC(Sc1nc2ccc(OC)cc2[nH]1)C(=O)c1ccc(Cl)cc1 (centres unmarked) [Z5032180785]	–	> 1000	–	–
CCOc1ccc(C(=O)C(C)Sc2nc3ccccc3n2C)cc1 (centres unmarked) [Z15479255]	–	> 1000	–	–
CCc1ccc(C(=O)C(C)Sc2nc3cc(C)ccc3[nH]2)cc1 (centres unmarked) [Z18443315]	–	> 1000	–	–
COc1ccc(-n2c(SC(C)C(=O)c3cc(C)c(C)cc3C)nc3ccccc32)cc1 (centres unmarked) [Z19576531]	–	> 1000	–	–
